Test results taken from patent US10703748B2, “Diazanaphthalen-3-yl carboxamides and preparation and use thereof” (Samumed, LLC, priority 2017, dated 2020).
pEC50: −log10 of the molar value.

Assays:
DYRK1A kinase = DYRK1A kinase (Homo sapiens, UniProt Q13627); experiment: DYRK1A kinase activity (Ser/Thr 18 peptide Z-lyte FRET assay); assay type: biochemical; details: recombinant DYRK1A, 30 μM ATP, one hour at room temperature;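 also: kinase activity read as coumarin/fluorescein emission ratio after development step, with unphosphorylated and phosphorylated peptide forms setting 0% and 100% controls, values from dose-response curves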
GSK3β kinase = GSK3β kinase (Homo sapiens, UniProt P49841); experiment: GSK3β kinase activity (Ser/Thr 09 peptide Z-lyte FRET assay); assay type: biochemical; details: recombinant kinase, 46 μM ATP, one hour at room temperature; read-out: EC50
[1] = test system: secreted cytokines TNFα, IL-6 and KC-GRO; experiment: Secreted cytokines in Lipopolysaccharide-stimulated BV-2 cells (Table 9 does not say which cytokine); assay type: cell-based, mouse; details: Mus musculus, BV-2, 5 h; read-out: EC50
[2] = test system: SW480 colon carcinoma cells; experiment: Cell viability assay (CellTiter-Glo); details: Homo sapiens; for pEC50: SW480, 96 h; for inhibition at 10 µM: SW480, read-out: percent inhibition at 10 μM
[3] = test system: Wnt-responsive Sp5-Luc reporter in SW480 colon carcinoma cells; experiment: Screening assay for Wnt activity (Sp5-Luc reporter gene assay); details: Homo sapiens; for pEC50: SW480; for inhibition at 10 µM: SW480, read-out: percent inhibition at 10 μM
IL-6 = IL-6 inhibition in LPS-stimulated human peripheral blood mononuclear cells (HTRF); details: Homo sapiens, PBMC; for pEC50: 22 h; for inhibition at 10 µM: read-out: percentage in parentheses after EC50 >10
[4] = test system: α-smooth muscle actin (aSMA) positive LL29 cells; experiment: Inhibition of the fibrotic process: αSMA staining in TGF-β1 treated LL29 fibroblasts from IPF patients; details: Homo sapiens, Fibroblast; for pEC50: 96 h; for inhibition at 10 µM: read-out: percentage in parentheses after EC50 >10

GSK3β kinase, sequence (P49841 whole entry): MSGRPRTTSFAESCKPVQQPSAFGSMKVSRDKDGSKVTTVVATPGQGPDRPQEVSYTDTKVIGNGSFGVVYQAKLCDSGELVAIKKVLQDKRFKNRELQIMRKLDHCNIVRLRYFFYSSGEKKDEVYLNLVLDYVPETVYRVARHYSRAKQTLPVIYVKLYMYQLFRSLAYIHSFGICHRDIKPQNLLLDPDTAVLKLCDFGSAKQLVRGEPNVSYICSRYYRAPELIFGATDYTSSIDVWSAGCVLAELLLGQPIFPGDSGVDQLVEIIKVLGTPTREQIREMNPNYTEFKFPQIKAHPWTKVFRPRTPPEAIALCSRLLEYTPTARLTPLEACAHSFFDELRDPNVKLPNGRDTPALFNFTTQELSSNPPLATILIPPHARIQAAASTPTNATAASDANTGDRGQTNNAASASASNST

Which results are given for `Cn1cc(-c2ccc3cnc(NC(=O)c4ccnc(OC5CCNCC5)c4)nc3c2)cn1` [Compound 1060, N-(7-(1-Methyl-1H-pyrazol-4-yl)quinazolin-2-yl)-2-(piperidin-4-yloxy)isonicotinamide]?
pEC50 (DYRK1A kinase): 7.57; pEC50 (GSK3β kinase): < 5.00; pEC50 [1]: 6.55; pEC50 [2]: 5.16; pEC50 [3]: 5.45; pEC50 (IL-6): < 5.00; inhibition at 10 µM (IL-6): 4.9%; pEC50 [4]: < 5.00; inhibition at 10 µM [4]: 28.6%

How did the pEC50 (DYRK1A kinase) turn out when `CN1CCC(n2cc(C(=O)Nc3ncc4ccc(-c5cncc6[nH]ccc56)cc4n3)cn2)CC1` [Compound 1802, N-(7-(1H-Pyrrolo[2,3-c]pyridin-4-yl)quinazolin-2-yl)-1-(1-methylpiperidin-4-yl)-1H-pyrazole-4-carboxamide] was run?
The pEC50 was 8.15.

And the pEC50 (GSK3β kinase)?
The pEC50 was < 5.00.

And the pEC50 [1]?
Its pEC50 is 5.36.

And the pEC50 [2]?
The pEC50 was 5.86.

And the pEC50 [3]?
The pEC50 was 5.85.

What about the pEC50 (IL-6) of the same molecule?
The pEC50 was < 5.00.

What about the inhibition at 10 µM (IL-6) of the same molecule?
The inhibition at 10 µM was 47.2%.

And the pEC50 [4]?
The pEC50 was < 5.00.

What about the inhibition at 10 µM [4] of the same molecule?
The inhibition at 10 µM was 47.6%.

What does the source list for `Nc1cncc(-c2cc3cc(NC(=O)c4ccc(OC5CCNCC5)cc4)ncc3cn2)c1` [Compound 4431, N-(6-(5-Aminopyridin-3-yl)-2,7-naphthyridin-3-yl)-4-(piperidin-4-yloxy) benzamide]?
pEC50 (DYRK1A kinase): 8.52; pEC50 (GSK3β kinase): 5.42; pEC50 [1]: 7.40; pEC50 [2]: 5.50; pEC50 [3]: 5.55; pEC50 (IL-6): < 5.00; inhibition at 10 µM (IL-6): 3.6%; pEC50 [4]: 5.60

With `CN1CCC2(CC1)CN(c1cc(C(=O)Nc3cc4cc(-c5cnn(C)c5CN5CCCCC5)cnc4cn3)ccn1)C2` [Compound 3032, N-(3-(1-Methyl-5-(piperidin-1-ylmethyl)-1H-pyrazol-4-yl)-1,7-naphthyridin-6-yl)-2-(7-methyl-2,7-diazaspiro[3.5]nonan-2-yl)isonicotinamide] as the molecule, how does the pEC50 (DYRK1A kinase) read?
Its pEC50 is 8.10.

And the pEC50 (GSK3β kinase)?
Its pEC50 is < 5.00.

And the pEC50 [1]?
The pEC50 was 6.90.

What about the pEC50 [2] of the same molecule?
Its pEC50 is 6.22.

And the pEC50 [3]?
Its pEC50 is 6.22.

And the pEC50 (IL-6)?
Its pEC50 is 5.78.

What about the pEC50 [4] of the same molecule?
The pEC50 was 5.80.

What does the source list for `CC(C)n1cc(C(=O)Nc2cc3cc(-c4cncc(NC5CCN(C)CC5)n4)cnc3cn2)cn1` [Compound 3627, 1-Isopropyl-N-(3-(6-((1-methylpiperidin-4-yl)amino)pyrazin-2-yl)-1,7-naphthyridin-6-yl)-1H-pyrazole-4-carboxamide]?
pEC50 (DYRK1A kinase): 8.15; pEC50 (GSK3β kinase): < 5.00; pEC50 [1]: 6.15; pEC50 [2]: 5.47; pEC50 [3]: 5.77; pEC50 (IL-6): < 5.00; inhibition at 10 µM (IL-6): 10.6%; pEC50 [4]: < 5.00; inhibition at 10 µM [4]: 33.4%

What does the source list for `O=C(Nc1cc2nc(-c3cnco3)ccc2cn1)[C@H]1CC[C@H](CO)CC1` [Compound 4548, trans-4-(Hydroxymethyl)-N-(2-(oxazol-5-yl)-1,6-naphthyridin-7-yl) cyclohexane-1-carboxamide]?
pEC50 (DYRK1A kinase): 7.72; pEC50 (GSK3β kinase): 6.11; pEC50 [1]: 6.40; pEC50 [2]: < 5.00; inhibition at 10 µM [2]: 29.8%; pEC50 [3]: < 5.00; pEC50 (IL-6): < 5.00; inhibition at 10 µM (IL-6): 3.2%; pEC50 [4]: < 5.00; inhibition at 10 µM [4]: 50%

With `Cn1cncc1-c1cnc2cnc(NC(=O)c3ccc(F)cc3)cc2c1` [Compound 3168, 4-Fluoro-N-(3-(1-methyl-1H-imidazol-5-yl)-1,7-naphthyridin-6-yl) benzamide] as the molecule, how does the pEC50 (DYRK1A kinase) read?
The pEC50 was 8.10.

And the pEC50 (GSK3β kinase)?
The pEC50 was < 5.00.

What about the pEC50 [1] of the same molecule?
Its pEC50 is 5.59.

What about the pEC50 [2] of the same molecule?
Its pEC50 is < 5.00.

And the inhibition at 10 µM [2]?
The inhibition at 10 µM was 25.8%.

What about the pEC50 [3] of the same molecule?
The pEC50 was < 5.00.

What about the inhibition at 10 µM [3] of the same molecule?
Its inhibition at 10 µM is 17.3%.

What about the pEC50 (IL-6) of the same molecule?
The pEC50 was < 5.00.

What about the inhibition at 10 µM (IL-6) of the same molecule?
The inhibition at 10 µM was 0%.

And the pEC50 [4]?
The pEC50 was < 5.00.

And the inhibition at 10 µM [4]?
The inhibition at 10 µM was 10.2%.

How did the pEC50 (DYRK1A kinase) turn out when `CN1CC=C(c2cc(C(=O)Nc3cc4cc(-c5cncc(NC(C)(C)C)n5)cnc4cn3)ccn2)CC1` [Compound 3587, N-(3-(6-(tert-Butylamino)pyrazin-2-yl)-1,7-naphthyridin-6-yl)-1′-methyl-1′,2′,3′,6′-tetrahydro-[2,4′-bipyridine]-4-carboxamide] was run?
Its pEC50 is 9.00.

What about the pEC50 (GSK3β kinase) of the same molecule?
Its pEC50 is < 5.00.

What about the pEC50 [1] of the same molecule?
The pEC50 was 7.96.

What about the pEC50 [2] of the same molecule?
The pEC50 was 6.09.

What about the pEC50 [3] of the same molecule?
Its pEC50 is 6.45.

What about the pEC50 (IL-6) of the same molecule?
The pEC50 was 5.12.

What about the pEC50 [4] of the same molecule?
Its pEC50 is 5.84.

`Cn1cc(-c2ccc3cnc(NC(=O)c4ccnc(OC5CCNCC5)c4)cc3n2)cn1` [Compound 153, N-(2-(1-Methyl-1H-pyrazol-4-yl)-1,6-naphthyridin-7-yl)-2-(piperidin-4-yloxy)isonicotinamide] was tested. Which pEC50 (DYRK1A kinase) did it give?
Its pEC50 is 8.40.

What about the pEC50 (GSK3β kinase) of the same molecule?
Its pEC50 is 5.22.

And the pEC50 [1]?
Its pEC50 is 6.80.

And the pEC50 [2]?
The pEC50 was 6.45.

What about the pEC50 [3] of the same molecule?
The pEC50 was 6.95.

And the pEC50 (IL-6)?
The pEC50 was 5.68.

And the pEC50 [4]?
The pEC50 was 5.96.

Which results are given for `CN1CCCN(CC(=O)Nc2cc3cc(-c4cnn(C)c4)cnc3cn2)CC1` [Compound 2826, 2-(4-Methyl-1,4-diazepan-1-yl)-N-(3-(1-methyl-1H-pyrazol-4-yl)-1,7-naphthyridin-6-yl)acetamide]?
pEC50 (DYRK1A kinase): 7.09; pEC50 (GSK3β kinase): 5.27; pEC50 [1]: 5.28; pEC50 [2]: < 5.00; inhibition at 10 µM [2]: 20.4%; pEC50 [3]: < 5.00; inhibition at 10 µM [3]: 11.2%; pEC50 (IL-6): < 5.00; inhibition at 10 µM (IL-6): 2.1%; pEC50 [4]: < 5.00; inhibition at 10 µM [4]: 37.9%

`CN1CCN(c2cc(C(=O)Nc3cc4cc(-c5cncs5)ncc4cn3)ccn2)CC1` [Compound 4257, 2-(4-Methylpiperazin-1-yl)-N-(6-(thiazol-5-yl)-2,7-naphthyridin-3-yl) isonicotinamide] was tested. Which pEC50 (DYRK1A kinase) did it give?
The pEC50 was 8.22.

And the pEC50 (GSK3β kinase)?
The pEC50 was 5.79.

And the pEC50 [1]?
The pEC50 was 6.20.

What about the pEC50 [2] of the same molecule?
Its pEC50 is 5.61.

What about the pEC50 [3] of the same molecule?
The pEC50 was 5.39.

What about the pEC50 (IL-6) of the same molecule?
The pEC50 was < 5.00.

What about the inhibition at 10 µM (IL-6) of the same molecule?
The inhibition at 10 µM was 5.3%.

And the pEC50 [4]?
The pEC50 was 5.60.

Which results are given for `CN1CCN(Cc2cccc(C(=O)Nc3cc4nc(-c5cnn(C)c5)ccc4cn3)c2)CC1` [Compound 172, N-(2-(1-Methyl-1H-pyrazol-4-yl)-1,6-naphthyridin-7-yl)-3-((4-methylpiperazin-1-yl)methyl)benzamide]?
pEC50 (DYRK1A kinase): 7.89; pEC50 (GSK3β kinase): 6.12; pEC50 [1]: 6.67; pEC50 [2]: 5.99; pEC50 [3]: 6.35; pEC50 (IL-6): < 5.00; inhibition at 10 µM (IL-6): 32.7%; pEC50 [4]: 6.41

How did the pEC50 (DYRK1A kinase) turn out when `CN1CCN(c2ccc(C(=O)Nc3cc4cc(-c5cnn(C)c5)ncc4cn3)cn2)CC1` [Compound 3778, N-(6-(1-Methyl-1H-pyrazol-4-yl)-2,7-naphthyridin-3-yl)-6-(4-methylpiperazin-1-yl)nicotinamide] was run?
The pEC50 was 8.40.

What about the pEC50 (GSK3β kinase) of the same molecule?
Its pEC50 is 6.73.

And the pEC50 [1]?
Its pEC50 is 6.14.

And the pEC50 [2]?
Its pEC50 is 5.11.

And the pEC50 [3]?
The pEC50 was 5.40.

And the pEC50 (IL-6)?
Its pEC50 is < 5.00.

And the inhibition at 10 µM (IL-6)?
The inhibition at 10 µM was 4.2%.

What about the pEC50 [4] of the same molecule?
The pEC50 was 6.16.

What does the source list for `Cn1cc(-c2cnc3cnc(NC(=O)C4CCN(Cc5ncccn5)CC4)cc3c2)cn1` [Compound 2820, N-(3-(1-Methyl-1H-pyrazol-4-yl)-1,7-naphthyridin-6-yl)-1-(pyrimidin-2-ylmethyl)piperidine-4-carboxamide]?
pEC50 (DYRK1A kinase): 7.43; pEC50 (GSK3β kinase): 5.15; pEC50 [1]: 6.05; pEC50 [2]: < 5.00; inhibition at 10 µM [2]: 22.4%; pEC50 [3]: < 5.00; inhibition at 10 µM [3]: 5.3%; pEC50 (IL-6): < 5.00; inhibition at 10 µM (IL-6): 3.3%; pEC50 [4]: 5.05

What does the source list for `Cn1cncc1-c1cc2cc(NC(=O)c3cccc(CN4CCCC4)c3)ncc2cn1` [Compound 4077, N-(6-(1-Methyl-1H-imidazol-5-yl)-2,7-naphthyridin-3-yl)-3-(pyrrolidin-1-ylmethyl)benzamide]?
pEC50 (DYRK1A kinase): 8.15; pEC50 (GSK3β kinase): 5.64; pEC50 [1]: 5.62; pEC50 [2]: 5.56; pEC50 [3]: 6.70; pEC50 (IL-6): < 5.00; inhibition at 10 µM (IL-6): 3.6%; pEC50 [4]: 5.99
